In brackets after ≈: the same amount, converted by molar mass.

Broadly, the solubility is how much of the substance goes into solution per volume.

Series [1] is described as follows: Solubility in 1% SDS in water by LC-UV. In kind it is physicochemical. Conditions: after 24 hours rotation, ambient temperature. The method, then: The solubility was determined in triplicate by use of LC-UV chromatography. […] The substance was rotated in the specific medium at ambient temperature for 24 hours, followed by filtering the supernatant using a hydrophilic PVDF (Millipore Corp.) 0.22 μm filter. The samples were then diluted with a 1:1 mixture of mobile phase A and B (see below) and analyzed using an Xterra™ MS C18, 50×2.1 mm column with UV detection at 288 nm. The mobile phase consisted of acetonitrile, water and trifluoroacetic acid, 5:95:0.1 (A) and 99:1:0.1 (B).
Solubility determinations were performed in 1% sodium dodecyl sulfate (SDS) in water.

In series [2] the target is insulin-like growth factor-1 receptor (IGF-1R) (Homo sapiens, UniProt P08069). The conditions noted are these: disclosed in WO 02/102804; cited from earlier work.
Series [3] can be described thus: Thermogravimetric analysis (TGA). In kind it is physicochemical. Conditions: initial analysis. The method, then: Thermogravimetric analysis (TGA) was performed on a Seiko TG/DTA 6200 and open 90 μl Pt-pans with ca 10 to 25 mg of sample and a nitrogen flow of 200 ml/min. The temperature program was ambient (20° C.) to 400° C. with a heating rate of 10° C./min. A blank was subtracted and the TG data was normalized with respect to sample size and analyzed using the Muse Standard Analysis software, version 6.1 U (Seiko, Japan).

A short description of series [4]: Powder dissolution profiling (intrinsic dissolution rate and apparent solubility) in PhB 6.5 and FeSSIF pH 6.5. How it is done:
Phosphate buffer pH 6.5 (PhB 6.5) was prepared according to a protocol by Galia and co-workers (Galia, E., et al. Evaluation of various dissolution media for predicting in vivo performance of class I and II drugs. Pharm Res 15, pp. 698-705 (1998)). Briefly, 1000 mL of […] Na2HPO4 buffer pH 6.5 was prepared by dissolving 3.95 g Na2HPO4xH2O, 6.19 g NaCl and 0.42 g NaOH in a volumetric flask by adding purified water. The pH was adjusted to pH to 6.5 by titration with 0.5 M NaOH and the volume was adjusted to 1000 mL with purified water. This buffer was sterile filtered and thereafter stored in refrigerator. Fed state simulated intestinal fluid (FeSSIF pH 6.5) was prepared fresh on the day of the experiment by dissolving 1.12 g of Na-taurocholate/lecithin powder (ePhares, Switzerland) in 100 mL PhB ((Galia, E., et al. Evaluation of various dissolution media for predicting in vivo performance of class I and II drugs. Pharm Res 15, pp. 698-705 (1998)). The media was stirred and preheated to 37±1° C. resulting in clear solution of pH 6.5 which contained a mixed micelle system of 15 mM taurocholate and 3.75 mM lecithin.
Dissolution rate and apparent solubility was measured with the pDISS Profiler™ (pION INC, MA, USA) from 0.3-1.3 mg compound weighed into the vial to which the preheated (37° C.) dissolution medium was added. […] Each UV probe was calibrated with its own standard curve prior to the experiment. The obtained results were analysed with the software accompanying the pDISS equipment.
The detailed procedure of the powder dissolution experiments, including the theoretical background, can be found in Avdeef, A., Tsinman, K., Tsinman, O., Sun, N. & Voloboy, D. Miniaturization of powder dissolution measurement and estimation of particle size. Chem Biodivers 6, 1796-1811 (2009); in Fagerberg, J. H., et al. Dissolution Rate and Apparent Solubility of Poorly Soluble Drugs in Biorelevant Dissolution Media. Mol Pharm 7, 1419-1430, (2010); and in Tsinman, K., Avdeef, A., Tsinman, O. & Voloboy, D. Powder dissolution method for estimating rotating disk intrinsic dissolution rates of low solubility drugs. Pharm Res 26, 2093-2100 (2009).

The nature of series [5]: Dynamic Vapour Sorption (DVS) hygroscopicity. In kind it is physicochemical. The conditions noted are these: from 0 to 90% RH, 25° C. How it is done: The hygroscopicity of the samples was studied by Dynamic Vapor Sorption Gravimetry (DVS) using a DVS-1 (Surface Measurement Ltd., UK).
Each sample was run in three consecutive full cycles. The condition to proceed to the next level of RH was a weight increase below or equal to 0.001% within 15 minutes, with a maximum total time per step of 24 hours. The temperature was kept at 25° C.

A short description of series [6]: Physical stability of polymorphs stirred in water, sonicated or mortared (XRPD). Conditions: for Solid form by XRPD after stirring in water: slurry in water rotated for 24 hours. Format: physicochemical. The method, then: The slurry was centrifuged and the supernatant was removed. The solid was dried under vacuum overnight and the sample was thereafter, stored at ambient conditions.
The slurry was centrifuged 3000 rpm for 10 minutes and the supernatant was removed. The solid was freezed (in a freezer) and freeze-dried overnight. The sample was kept at ambient conditions for 2 hours before the XRPD analysis.

Series [7] can be described thus: Slurry experiments with mixture of polymorphs B and C in saturated picropodophyllin solutions. In kind it is physicochemical. How it is done: The solid was filtered off and the saturated picropodophyllin solutions were used in the slurry experiment below.
The solid was filtered off using a glass filter and stored at ambient conditions for 2 hours.
The solid was filtered off using a glass filter and left on the glass filter for 30 minutes.
The slurry was slowly stirred overnight. The slurry was removed from the oil bath and immediately filtered through a glass filter. The solid was left on the glass filter for 30 minutes.
The slurry was slowly stirred for 4 hours. The slurry was removed from the oil bath and immediately filtered through a glass filter. The solid was left on the glass filter for 30 minutes.

Series [8] is described as follows: Three month solid state stability study (appearance, XRPD, TGA). Format: physicochemical. The conditions noted are these: for TGA mass loss from ambient temperature to 150° C.: after 3 months storage at 40° C./75% RH; for Change in appearance: open containers. How it is done:
Analysis was made by using X-Ray Powder Diffration (XRPD) and Thermogravimetry (TGA).
Experiments were run as described above using Cu Kα1 radiation (45 kV and 40 mA) at ambient temperature and humidity. Scans were run in continous scan mode in the range 2-50° 2θ using automatic divergence and antiscatter slits with observed length of 10 mm, a step size of 0.013° 2θ and a common counting time of 97.920 seconds.
Thermogravimetry (TGA) was performed on a Seiko TG/DTA 6200 and open 90 μl Pt-pans with ca 10 to 20 mg of sample and a nitrogen flow of 200 mL/min. The temperature program was ambient (20° C.) to 400° C. with a heating rate of 10° C./min. A blank was subtracted and the TG data was normalized with respect to sample size and analyzed using the Muse Standard Analysis software, version 6.1 U.

[9] abbreviates: listed as picropodophyllin polymorph B.
Where [10] appears, read: listed as picropodophyllin polymorph C.

Sequence of insulin-like growth factor-1 receptor (IGF-1R) (P08069 31-1367, species assumed): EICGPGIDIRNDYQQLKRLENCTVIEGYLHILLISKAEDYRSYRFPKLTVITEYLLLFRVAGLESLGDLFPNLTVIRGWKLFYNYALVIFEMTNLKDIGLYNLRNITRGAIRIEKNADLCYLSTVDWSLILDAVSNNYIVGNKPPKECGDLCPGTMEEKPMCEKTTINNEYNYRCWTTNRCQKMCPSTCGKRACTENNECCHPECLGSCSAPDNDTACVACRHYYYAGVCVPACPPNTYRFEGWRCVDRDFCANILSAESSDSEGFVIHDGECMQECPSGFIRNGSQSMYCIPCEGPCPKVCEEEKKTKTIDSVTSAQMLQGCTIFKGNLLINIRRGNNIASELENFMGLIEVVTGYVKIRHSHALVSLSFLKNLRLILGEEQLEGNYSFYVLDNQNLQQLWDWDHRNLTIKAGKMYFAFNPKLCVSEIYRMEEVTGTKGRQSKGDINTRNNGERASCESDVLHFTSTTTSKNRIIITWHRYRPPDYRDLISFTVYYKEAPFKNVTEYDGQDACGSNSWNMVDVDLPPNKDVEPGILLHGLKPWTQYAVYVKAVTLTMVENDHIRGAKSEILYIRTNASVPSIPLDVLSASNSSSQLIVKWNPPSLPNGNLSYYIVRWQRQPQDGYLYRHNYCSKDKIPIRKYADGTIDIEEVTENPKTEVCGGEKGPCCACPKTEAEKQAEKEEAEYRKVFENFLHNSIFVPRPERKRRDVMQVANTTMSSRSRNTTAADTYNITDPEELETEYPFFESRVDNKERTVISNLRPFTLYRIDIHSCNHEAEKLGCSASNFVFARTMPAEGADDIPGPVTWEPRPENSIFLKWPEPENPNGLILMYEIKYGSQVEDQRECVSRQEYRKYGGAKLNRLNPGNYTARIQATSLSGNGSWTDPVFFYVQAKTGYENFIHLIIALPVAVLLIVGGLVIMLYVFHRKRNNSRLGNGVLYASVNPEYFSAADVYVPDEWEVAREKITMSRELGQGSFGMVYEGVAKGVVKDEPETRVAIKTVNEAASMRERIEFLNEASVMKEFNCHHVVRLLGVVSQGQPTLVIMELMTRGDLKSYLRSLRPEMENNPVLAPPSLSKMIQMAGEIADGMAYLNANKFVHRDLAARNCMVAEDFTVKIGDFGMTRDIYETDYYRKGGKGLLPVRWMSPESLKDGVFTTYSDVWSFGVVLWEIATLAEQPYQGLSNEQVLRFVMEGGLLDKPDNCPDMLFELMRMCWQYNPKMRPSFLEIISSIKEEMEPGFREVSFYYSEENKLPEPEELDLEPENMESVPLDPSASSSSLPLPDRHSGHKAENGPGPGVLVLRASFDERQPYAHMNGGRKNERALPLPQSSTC

With `COc1cc(C2c3cc4c(cc3C(O)[C@H]3COC(=O)[C@@H]23)OCO4)cc(OC)c1OC` (stereo partly drawn) [picropodophyllin monohydrate, reference compound], in series [1] (monohydrate), the “Solubility in 1% SDS in water” value came to 200 µg/mL.
Regarding `COc1cc([C@@H]2c3cc4c(cc3[C@H](O)[C@H]3COC(=O)[C@@H]23)OCO4)cc(OC)c1OC` [picropodophyllin], in series [2], the “Inhibition of IGF-1R” value was “specific and potent inhibitor”.
In the case of `COc1cc([C@@H]2c3cc4c(cc3[C@H](O)[C@H]3COC(=O)[C@@H]23)OCO4)cc(OC)c1OC` [polymorph B, picropodophyllin], the “TGA mass loss from ambient temperature to 150° C.” value in series [3] (setting [9]) and in series [8] (setting [9]) was 0.0±0.1% in each case. The “Apparent Solubility assay 1” value in series [4] (FeSSIF pH 6.5, 37° C., assay time polymorph B 16 hours, polymorph C 1.3 hours, triplicate) turned out to be 25.51 ± 0.51 µg/mL; in series [4] (PhB 6.5, 37° C., assay time polymorph B 19 hours, polymorph C […], mean ± SD, triplicate), 11.72 ± 0.22 µg/mL. Moreover, in series [4] (FeSSIF pH 6.5 vs PhB 6.5), the “Solubility increase in FeSSIF as compared to PhB 6.5” value is listed as 2.2 fold. The compound further yielded a DVS mass increase in series [5] of 0.2%. For the same compound, in series [6], the “Solid form by XRPD after stirring in water” value was “converted to a mixture of mainly picropodophyllin monohydrate and some picropodophyllin polymorph B”. Also, the solubility at 24 h in series [1] (1% SDS in water, aqueous with cosolvent or surfactant or cyclodextrin, thermodynamic from solid) stood at 700 µg/mL (≈ 1690 µM). In addition, the “Solid form obtained from slurry of polymorphs B and C” value in series [7] (acetone saturated with picropodophyllin, five days, ambient temperature) was “converted to polymorph C”; in series [7] (ethyl acetate saturated with picropodophyllin, five days, ambient temperature), “converted to polymorph C”; in series [7] (mesitylene saturated with picropodophyllin, five days, ambient temperature) it was “converted to polymorph C”; in series [7] (mesitylene, 70° C., overnight), “converted to polymorph C”; in series [7] (mesitylene, 120° C., 4 hours) it was “converted to polymorph C”. Moreover, the “Solid-state instability (XRPD, TGA)” value in series [8] (3 months storage at 25° C./60% RH) and in series [8] (3 months storage at 40° C./75% RH) was “does not show any sign(s) of solid-state instability” throughout. Also, the Change in appearance result in series [8] (3 months at 25° C./60% RH) and in series [8] (3 months at 40° C./75% RH) was “no change in appearance” in each case.
With `COc1cc([C@@H]2c3cc4c(cc3[C@H](O)[C@H]3COC(=O)[C@@H]23)OCO4)cc(OC)c1OC` [polymorph C, picropodophyllin], the “TGA mass loss from ambient temperature to 150° C.” value in series [3] (setting [10]) and in series [8] (setting [10]) was 0.1±0.1% each time. The solubility in series [4] (37 °C, pH 6.5, aqueous buffer, thermodynamic from solid, Apparent Solubility Assay 1 + 2, PhB 6.5, 37° C., assays 1 and 2 combined, mean ± SD) was determined as 5.85 ± 0.25 µg/mL; in series [4] (37 °C, pH 6.5, aqueous buffer, thermodynamic from solid, Apparent Solubility assay 1, PhB 6.5, 37° C., assay time polymorph B 19 hours, polymorph C […], mean ± SD, triplicate), 5.88 ± 0.09 µg/mL (≈ 14.2 µM); in series [4] (37 °C, pH 6.5, fessif, thermodynamic from solid, Apparent Solubility Assay 1 + 2, FeSSIF pH 6.5, 37° C., assays 1 and 2 combined), 12.6 ± 0.8 µg/mL. For the same compound, in series [4] (37 °C, pH 6.5, aqueous buffer, thermodynamic from solid, Apparent Solubility assay 2, PhB 6.5, 37° C., assay time 29 hours (value obtained after 50 minutes), mean ± SD, triplicate), the solubility at 50 min stood at 5.81 ± 0.38 µg/mL (≈ 14 µM). Also, the solubility at 25 h in series [4] (37 °C, pH 6.5, fessif, thermodynamic from solid, Apparent Solubility assay 2, FeSSIF pH 6.5, 37° C., assay time 25 hours, triplicate) stood at 12.2 ± 1.07 µg/mL (≈ 29.5 µM). In addition, the “Solid form by XRPD after sonication” value in series [6] (in purified water, cooled on ice, sonicated for 5 minutes) was “no phase change occurred”. In addition, the “Solid form by XRPD after mortaring” value in series [6] (mortared for 5 minutes in agate mortar) is “no phase change occurred”. For the same compound, in series [6] (setting [10]), the “Solid form by XRPD after stirring in water” value is “no phase change occurred”. Besides, in series [1] (setting [10]), the “Solubility in 1% SDS in water” value is 400 µg/mL (≈ 965 µM).

Source of the values: patent US9314525B2 (Axelar AB, priority 2010, dated 2016).
